Structures are written as SMILES.

Series [1] relates to caspase-9. Nature of the series: RT-PCR of apoptosis-related genes in HepG2 cells. The class given is cell-based, human. The note with it: HepG2 cells treated with 5d, control = 1, increase. The procedure:
(§1) RT-PCR reactions were carried out to investigate the relative gene expression of apoptosis-related genes, including the proapoptotic genes Bax, caspases 3 and 9, and the anti-apoptotic Bcl2 gene. […] Therefore, it can be concluded that the induction of apoptosis in HepG2 cells upon treatment with 5d is associated with the upregulation of proapoptotic genes and the downregulation of anti-apoptotic genes.
(§2) The level of apoptotic markers caspase-3, caspase-9, Bax, and Bcl-2 was measured using BIORAD iScript TM One-Step RT-PCR kit with SYBR® Green. According to the manufacturer’s instructions, the kit was used in three subsequent steps.
(§3) mRNA isolation of up to 1 × 10^7 cells was carried out using an RNeasy extraction kit. Cells were disrupted in RNeasy Lysis Buffer (RLT buffer) and homogenized. Ethanol was then added to make a lysate and provoke the selective binding of RNA to the RNeasy membrane. The sample was then applied to the RNeasy mini spin column, where total RNA binds to the membrane while contaminants pass through. The RNA was then eluted in RNase-free water.
(§4) All the following reagents were mixed to make about 50 μL mixture: 2X SYBR® Green RT-PCR reaction mixture (25 μL), forward primer (10 μM; 1.5 μL), reverse primer (10 μM; 1.5 μL), nuclease-free H2O (11 μL), RNA template (1 pg to 100 ng total RNA; 10 μL) and iScript reverse transcriptase for One-Step RT-PCR (1 μL).
(§5) The whole reaction mixture was incubated in a real-time thermal detection system (Rotorgene) as follows: cDNA synthesis (10 min at 50 °C), iScript reverse transcriptase inactivation (5 min at 95 °C), PCR cycling and detection (30–45 cycles):10 s at 95 °C and 30 s at 55 °C to 60 °C (data collection step) and melt curve analysis: 1 min at 95 °C, 1 min at 55 °C and 10 s at 55 °C–95 °C (80 cycles, increasing each by 0.5 °C each cycle).

The subject of series [2] is Bax. As to the kind of experiment: RT-PCR of apoptosis-related genes in HepG2 cells. Format: cell-based, human. The note with it: HepG2 cells treated with 5d, control = 1, increase. The procedure:
as §1, §2, §3, §4, §5

For series [3], the system named is caspase-3. As to the kind of experiment: RT-PCR of apoptosis-related genes in HepG2 cells. The class given is cell-based, human. The note with it: HepG2 cells treated with 5d, control = 1, increase. As for the experimental part:
as §1, §2, §3, §4, §5

Series [4] concerns Bcl2. Nature of the series: RT-PCR of apoptosis-related genes in HepG2 cells. The class given is cell-based, human. The note with it: HepG2 cells treated with 5d, control = 1, downregulated. The procedure:
as §1, §2, §3, §4, §5

Series [5] has as its target T1, VEGFR2 (Homo sapiens, UniProt P35968).
T1 construct: purchased
Nature of the series: Kinase inhibition, ELISA kit. The note with it: mean ± SD of three experiments. The class given is biochemical. The procedure: . The corresponding kinase inhibitory kit assays were used, and the results are expressed as IC50 values (µM), as presented in Table 2. […]. The inhibitory activity of compound 5d against CDK2, HER2, EGFR, and VEGFR2 was evaluated using the corresponding human kinases ELISA kit (Enzyme-Linked Immunosorbent Assay). In brief, specific antibodies for each kinase were seeded on a 96-well plate, and 100 μL of the standard solution or compound 5d was added. Afterward, the plate was incubated at room temperature for 2.5 h and then washed with PBS. A total of 100 μL of the prepared biotin antibody was added and incubated at room temperature for an additional 1 h, and then 100 μL of streptavidin solution was added and incubated at room temperature for another 45 min. After washing, 100 μL of TMB substrate reagent was added and incubated for 30 min at room temperature. Finally, about 50 μL of the stop solution was added and then read at 450 nm immediately. A standard curve was drawn, with concentrations on the X-axis and absorbance on the Y-axis.

Series [6] can be described thus: MTT cytotoxicity assay, normal human cell line. The class given is cell-based. The note with it: human, WI38 cells (normal human cells), 24 h treatment, mean ± SD of three experiments, read-out: In Vitro Cytotoxicity IC50 WI38. As for the experimental part:
(§6) In addition, the safety profile of the 2-sulfanylquinazolin-4(3H)-one derivatives was evaluated against normal human cells (WI38) […]. The standard MTT (3-(4,5-dimethylthiazol-2-yl)-2,5 diphenyl tetrazolium bromide) colorimetric assay protocol was used, as described by Mosmann. […] The results were expressed as growth inhibitory concentration (IC50) values.
(§7) The cell lines were obtained from ATCC (American Type Culture Collection). […] After incubation, the cells were treated with different concentrations of the synthesized compounds and incubated for 24 h. Afterward, the cells were washed with PBS, and 20 µL of MTT solution at 5 mg/mL was added, all incubated for 4 h. The MTT solution was discarded, and 100 µL of dimethyl sulfoxide (DMSO) was added per well. […] The relative cell viability in percentage was calculated as (A570 of treated cells/A570 of untreated cells) × 100.

Series [7] has as its system WI38 cells. As to the kind of experiment: MTT cytotoxicity assay, normal human cell line. The class given is cell-based. The note with it: 24 h treatment, mean ± SD of three experiments, read-out: In Vitro Cytotoxicity IC50 WI38. As for the experimental part: as §6, §7
Series [8] concerns HepG2, MCF-7, MDA-231, and HeLa. Nature of the series: MTT cytotoxicity assay, range over the tested cancer cell lines. The note with it: Homo sapiens, range over HepG2, MCF-7, MDA-231 and HeLa, read-out: IC50 range against all tested cancer cell lines. Format: cell-based. As for the experimental part: as §6, §7
The target of series [9] is T2, EGFR (Homo sapiens, UniProt P00533).
T2 construct: purchased
T2 sequence (P00533 25-1210): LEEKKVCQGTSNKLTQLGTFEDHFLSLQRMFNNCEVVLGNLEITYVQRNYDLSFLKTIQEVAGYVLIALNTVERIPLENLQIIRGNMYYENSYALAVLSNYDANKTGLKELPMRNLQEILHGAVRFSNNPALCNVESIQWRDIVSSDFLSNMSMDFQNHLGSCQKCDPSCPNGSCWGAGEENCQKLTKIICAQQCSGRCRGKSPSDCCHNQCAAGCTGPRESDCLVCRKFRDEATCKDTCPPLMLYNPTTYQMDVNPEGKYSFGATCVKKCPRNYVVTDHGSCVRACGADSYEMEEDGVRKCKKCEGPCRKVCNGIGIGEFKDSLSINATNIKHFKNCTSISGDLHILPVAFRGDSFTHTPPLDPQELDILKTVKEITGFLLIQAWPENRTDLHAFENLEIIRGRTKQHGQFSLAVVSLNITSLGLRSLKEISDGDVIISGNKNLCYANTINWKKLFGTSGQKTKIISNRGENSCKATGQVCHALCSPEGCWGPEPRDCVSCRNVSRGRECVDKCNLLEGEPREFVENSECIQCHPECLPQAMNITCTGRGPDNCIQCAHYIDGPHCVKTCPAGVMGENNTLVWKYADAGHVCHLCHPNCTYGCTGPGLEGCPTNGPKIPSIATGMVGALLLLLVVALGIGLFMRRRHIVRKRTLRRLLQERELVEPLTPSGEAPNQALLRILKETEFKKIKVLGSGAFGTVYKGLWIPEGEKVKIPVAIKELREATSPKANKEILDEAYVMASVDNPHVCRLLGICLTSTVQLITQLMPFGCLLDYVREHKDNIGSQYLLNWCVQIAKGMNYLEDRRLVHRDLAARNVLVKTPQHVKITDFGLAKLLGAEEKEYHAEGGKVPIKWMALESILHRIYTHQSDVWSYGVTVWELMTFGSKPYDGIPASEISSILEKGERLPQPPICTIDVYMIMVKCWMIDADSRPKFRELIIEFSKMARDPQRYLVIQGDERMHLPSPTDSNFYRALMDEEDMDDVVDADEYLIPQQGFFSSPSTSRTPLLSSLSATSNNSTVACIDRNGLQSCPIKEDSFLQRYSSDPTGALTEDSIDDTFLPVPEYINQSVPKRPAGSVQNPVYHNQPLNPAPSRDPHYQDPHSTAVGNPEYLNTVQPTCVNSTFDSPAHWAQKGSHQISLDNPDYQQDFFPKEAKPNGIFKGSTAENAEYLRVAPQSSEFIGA
Nature of the series: Kinase inhibition, ELISA kit. Format: biochemical. The note with it: mean ± SD of three experiments. The procedure:
The corresponding kinase inhibitory kit assays were used, and the results are expressed as IC50 values (µM), as presented in Table 2. […] Afterward, the plate was incubated at room temperature for 2.5 h and then washed with PBS. A total of 100 μL of the prepared biotin antibody was added and incubated at room temperature for an additional 1 h, and then 100 μL of streptavidin solution was added and incubated at room temperature for another 45 min. After washing, 100 μL of TMB substrate reagent was added and incubated for 30 min at room temperature. Finally, about 50 μL of the stop solution was added and then read at 450 nm immediately. A standard curve was drawn, with concentrations on the X-axis and absorbance on the Y-axis.

The test system of series [10] is MDA-MB-231 cells. Nature of the series: MTT cytotoxicity assay. The class given is cell-based, human. The note with it: Homo sapiens, MDA-MB-231, 24 h, MDA-MB-231, MTT, 24 h treatment, mean ± SD of three experiments; read-out: In Vitro Cytotoxicity IC50 MDA-MB-231. As for the experimental part: as §6, §7
In series [11] the test system is MCF-7 cells. As to the kind of experiment: MTT cytotoxicity assay. The class given is cell-based, human. The note with it: Homo sapiens, MCF7, 24 h, MCF-7, MTT, 24 h treatment, mean ± SD of three experiments; read-out: In Vitro Cytotoxicity IC50 MCF-7. The procedure: as §6, §7
Series [12] concerns HepG2 cells. As to the kind of experiment: MTT cytotoxicity assay. Format: cell-based, human. The note with it: Homo sapiens, HepG2, 24 h, 24 h treatment, mean ± SD of three experiments, read-out: In Vitro Cytotoxicity IC50 HepG2. The procedure: as §6, §7
For series [13], the system named is HeLa cells. As to the kind of experiment: MTT cytotoxicity assay. The class given is cell-based, human. The note with it: Homo sapiens, 24 h, 24 h treatment, mean ± SD of three experiments, read-out: In Vitro Cytotoxicity IC50 HeLa. As for the experimental part:
as §6, §7

T1 sequence (P35968 20-1356): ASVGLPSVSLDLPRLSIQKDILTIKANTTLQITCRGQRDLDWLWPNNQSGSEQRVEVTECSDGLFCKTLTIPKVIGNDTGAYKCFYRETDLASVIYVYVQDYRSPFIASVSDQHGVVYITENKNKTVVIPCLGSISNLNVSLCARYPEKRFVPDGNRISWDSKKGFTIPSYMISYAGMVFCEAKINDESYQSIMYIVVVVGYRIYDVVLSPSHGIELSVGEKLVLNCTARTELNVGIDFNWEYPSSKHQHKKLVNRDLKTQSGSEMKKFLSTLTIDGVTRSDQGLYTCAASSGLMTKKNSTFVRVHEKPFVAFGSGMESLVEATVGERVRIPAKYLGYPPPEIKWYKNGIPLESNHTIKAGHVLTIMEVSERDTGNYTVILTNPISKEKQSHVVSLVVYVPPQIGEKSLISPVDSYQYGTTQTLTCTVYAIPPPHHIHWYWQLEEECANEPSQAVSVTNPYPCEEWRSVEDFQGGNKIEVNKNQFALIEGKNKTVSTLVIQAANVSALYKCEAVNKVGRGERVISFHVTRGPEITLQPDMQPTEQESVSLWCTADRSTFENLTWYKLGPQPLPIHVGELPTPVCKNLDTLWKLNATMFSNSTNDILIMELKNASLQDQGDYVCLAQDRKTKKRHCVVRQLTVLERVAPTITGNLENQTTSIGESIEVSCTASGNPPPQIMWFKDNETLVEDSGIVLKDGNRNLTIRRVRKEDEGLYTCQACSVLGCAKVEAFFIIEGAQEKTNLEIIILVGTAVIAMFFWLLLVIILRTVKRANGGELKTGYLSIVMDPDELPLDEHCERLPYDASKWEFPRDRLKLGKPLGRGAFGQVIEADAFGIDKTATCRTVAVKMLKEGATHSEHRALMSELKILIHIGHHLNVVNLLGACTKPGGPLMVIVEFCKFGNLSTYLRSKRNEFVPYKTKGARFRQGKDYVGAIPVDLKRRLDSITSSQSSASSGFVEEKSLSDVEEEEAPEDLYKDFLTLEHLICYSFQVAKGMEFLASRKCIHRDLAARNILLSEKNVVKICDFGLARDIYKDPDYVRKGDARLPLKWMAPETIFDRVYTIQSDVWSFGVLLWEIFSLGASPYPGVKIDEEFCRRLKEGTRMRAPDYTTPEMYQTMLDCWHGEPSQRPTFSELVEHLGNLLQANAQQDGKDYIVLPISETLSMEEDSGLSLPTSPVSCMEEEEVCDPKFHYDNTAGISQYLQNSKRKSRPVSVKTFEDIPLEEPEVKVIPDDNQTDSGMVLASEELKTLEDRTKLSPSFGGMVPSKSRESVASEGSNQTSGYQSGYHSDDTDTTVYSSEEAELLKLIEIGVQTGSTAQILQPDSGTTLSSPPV

On to `Cc1ccc(-n2c(SCc3ccc(Cl)cc3)nc3ccc(F)cc3c2=O)cc1` [Compound 5d, 2-(4-Chloro-benzylsulfanyl)-6-fluoro-3-(4-methylArenyl)-3H-quinazolin-4-one], for which the “gene expression of caspase-9, fold change” value in [1] is on record as “two”. Moreover, the “gene expression of Bax, fold change” value in [2] is reported as “three”. Further, the “gene expression of caspase-3, fold change” value in series [3] is “three”. Besides, the “expression of anti-apoptotic gene Bcl2, fold change” value in series [4] is listed as 0.4 fold. Also, the IC50 in [5] is 0.336 ± 0.009 µM; in [7], 64.3 ± 3.5 µM; in [8], 1.94 to 7.1 µM; in [9], 0.22 ± 0.013 µM; in series [10] it was 1.94 ± 0.1 µM; in [11], 2.48 ± 0.2 µM. Also, the 50% inhibitory concentration (IC50) in [12] is 7.1 ± 0.6 µM; in series [13], 6.38 ± 0.4 µM. For the same compound, in series [6], the 50% inhibitory concentration (IC50) at 24 h is 40.9 µM.

These data come from article PMC10383864, “Novel 2-Sulfanylquinazolin-4(3H)-one Derivatives as Multi-Kinase Inhibitors and Apoptosis Inducers: A Synthesis, Biological Evaluation, and Molecular Docking Study” (Molecules, 2023).
